Laboratory results reported in publication PMC4937658, “Effects of dalfampridine and its metabolites on cloned human potassium channels Kv 1.1, Kv 1.2, and Kv 1.4 expressed in human embryonic kidney cells” (Journal of Drug Assessment, 2013).
Where a name gives a salt, the structure may show the parent alone.

Columns and labels:
Test in all cases: automated whole-cell patch clamp (PatchXpress), peak current
Format in all cases: cell-based
Kv 1.2 = target: T1, Kv 1.2 (Homo sapiens, UniProt P16389)
T1 construct: gene KCNA2; cDNA stably transfected in HEK293 cells; expressed alone (homotetramer)
T1 sequence (P16389 whole entry): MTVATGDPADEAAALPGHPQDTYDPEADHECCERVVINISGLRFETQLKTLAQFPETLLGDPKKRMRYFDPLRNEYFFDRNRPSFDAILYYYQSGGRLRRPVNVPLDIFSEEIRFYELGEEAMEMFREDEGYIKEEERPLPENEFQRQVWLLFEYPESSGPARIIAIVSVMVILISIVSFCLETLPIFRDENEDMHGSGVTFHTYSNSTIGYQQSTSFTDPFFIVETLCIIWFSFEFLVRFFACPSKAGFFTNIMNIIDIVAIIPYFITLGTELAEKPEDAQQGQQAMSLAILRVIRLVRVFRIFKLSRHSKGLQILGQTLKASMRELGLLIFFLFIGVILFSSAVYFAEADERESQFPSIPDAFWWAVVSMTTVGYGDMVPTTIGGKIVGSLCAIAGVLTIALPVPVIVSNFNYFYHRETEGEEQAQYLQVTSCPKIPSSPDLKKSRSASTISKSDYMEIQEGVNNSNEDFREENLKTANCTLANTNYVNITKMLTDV
Excerpt: automated whole-cell patch clamp (PatchXpress), peak current on Kv 1.2

Kv 1.4 = target: T2, Kv 1.4 (Homo sapiens, UniProt P22459)
T2 construct: gene KCNA4; cDNA stably transfected in HEK293 cells; expressed alone (homotetramer)
T2 sequence (P22459 whole entry): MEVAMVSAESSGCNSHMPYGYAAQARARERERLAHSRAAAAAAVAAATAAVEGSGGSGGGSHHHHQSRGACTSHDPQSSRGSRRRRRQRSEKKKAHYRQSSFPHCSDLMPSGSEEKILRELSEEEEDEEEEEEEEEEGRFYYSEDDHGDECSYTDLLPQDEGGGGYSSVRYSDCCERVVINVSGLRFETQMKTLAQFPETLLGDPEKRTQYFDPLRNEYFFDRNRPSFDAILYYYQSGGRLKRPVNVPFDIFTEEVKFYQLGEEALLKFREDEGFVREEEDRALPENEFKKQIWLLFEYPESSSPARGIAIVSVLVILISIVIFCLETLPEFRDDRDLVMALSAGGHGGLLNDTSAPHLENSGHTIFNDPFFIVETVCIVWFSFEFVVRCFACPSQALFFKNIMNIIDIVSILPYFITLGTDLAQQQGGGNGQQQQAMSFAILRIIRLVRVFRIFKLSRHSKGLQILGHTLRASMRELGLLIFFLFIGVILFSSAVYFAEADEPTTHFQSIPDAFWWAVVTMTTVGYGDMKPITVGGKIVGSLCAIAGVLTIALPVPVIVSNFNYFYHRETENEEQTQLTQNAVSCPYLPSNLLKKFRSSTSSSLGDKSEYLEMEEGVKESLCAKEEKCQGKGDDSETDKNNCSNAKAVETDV
Excerpt: automated whole-cell patch clamp (PatchXpress), peak current on Kv 1.4

Kv 1.1 = target: T3, Kv 1.1 (Homo sapiens, UniProt Q09470)
T3 construct: gene KCNA1; cDNA stably transfected in HEK293 cells; expressed alone (homotetramer)
T3 sequence (Q09470 whole entry): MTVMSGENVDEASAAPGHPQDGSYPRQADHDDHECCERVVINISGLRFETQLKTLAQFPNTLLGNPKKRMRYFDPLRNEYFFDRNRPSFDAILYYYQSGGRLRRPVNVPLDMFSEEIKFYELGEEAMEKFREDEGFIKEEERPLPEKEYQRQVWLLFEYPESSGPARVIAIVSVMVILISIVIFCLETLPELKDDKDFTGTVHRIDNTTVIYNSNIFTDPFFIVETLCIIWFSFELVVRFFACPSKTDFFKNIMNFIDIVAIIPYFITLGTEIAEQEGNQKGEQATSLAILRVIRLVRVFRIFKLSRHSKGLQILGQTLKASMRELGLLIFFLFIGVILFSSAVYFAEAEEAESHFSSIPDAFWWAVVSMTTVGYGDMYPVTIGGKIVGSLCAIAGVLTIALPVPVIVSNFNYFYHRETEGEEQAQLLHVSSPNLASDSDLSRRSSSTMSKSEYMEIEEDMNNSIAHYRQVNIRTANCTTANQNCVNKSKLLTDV
Excerpt: automated whole-cell patch clamp (PatchXpress), peak current on Kv 1.1

IC50 (Kv 1.2) [µM] | IC50 (Kv 1.4) [µM] | IC50 (Kv 1.1) [µM] | SMILES
23700 | 23200 | 7890 | Nc1ccncc1O [3-hydroxy-4-aminopyridine]
21400 | > 50000 | 30300 | Nc1ccncc1OS(=O)(=O)O [3-hydroxy-4-aminopyridine sulfate]
